Test results as given in PubChem BioAssay (NCI).
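GI50 = concentration required for 50% inhibition of growth. TGI is the concentration that stops growth completely.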

Columns and labels:
Experiment in all cases: growth of human tumour cells (NCI), 384-well format
HOP-62 NSCLC = test system: HOP-62 NSCLC
T-47D breast = test system: T-47D breast
MDA-MB-435 melanoma = test system: MDA-MB-435 melanoma
786-0 renal = test system: 786-0 renal
UACC-257 melanoma = test system: UACC-257 melanoma
MCF7 breast = test system: MCF7 breast
HCT-116 colon = test system: HCT-116 colon
U251 glioblastoma = test system: U251 glioblastoma
NCI-H460 NSCLC = test system: NCI-H460 NSCLC
OVCAR-4 ovarian = test system: OVCAR-4 ovarian
KM12 colon = test system: KM12 colon
SK-MEL-28 melanoma = test system: SK-MEL-28 melanoma
COLO 205 colon = test system: COLO 205 colon
NCI-H226 lung = test system: NCI-H226 lung
SW-620 colon = test system: SW-620 colon
SF-539 CNS = test system: SF-539 CNS
IGROV1 ovarian = test system: IGROV1 ovarian
SK-MEL-2 melanoma = test system: SK-MEL-2 melanoma
BT-549 breast = test system: BT-549 breast
NCI/ADR-RES ovarian = test system: NCI/ADR-RES ovarian
K-562 leukemia = test system: K-562 leukemia
MDA-MB-231 breast = test system: MDA-MB-231 breast
MALME-3M melanoma = test system: MALME-3M melanoma
ACHN renal = test system: ACHN renal
PC-3 prostate = test system: PC-3 prostate
LOX IMVI melanoma = test system: LOX IMVI melanoma
M14 melanoma = test system: M14 melanoma
OVCAR-5 ovarian = test system: OVCAR-5 ovarian
A498 renal = test system: A498 renal
SK-MEL-5 melanoma = test system: SK-MEL-5 melanoma
A549 NSCLC = test system: A549 NSCLC
RXF 393 renal = test system: RXF 393 renal
SK-OV-3 ovarian = test system: SK-OV-3 ovarian
UO-31 renal = test system: UO-31 renal
CAKI-1 renal = test system: CAKI-1 renal
HCT-15 colon = test system: HCT-15 colon
DU-145 prostate = test system: DU-145 prostate
SF-268 CNS = test system: SF-268 CNS
SF-295 CNS = test system: SF-295 CNS
HOP-92 NSCLC = test system: HOP-92 NSCLC
RPMI-8226 leukemia = test system: RPMI-8226 leukemia
SNB-19 CNS = test system: SNB-19 CNS
NCI-H23 lung = test system: NCI-H23 lung
HCC-2998 colon = test system: HCC-2998 colon
OVCAR-3 ovarian = test system: OVCAR-3 ovarian
UACC-62 melanoma = test system: UACC-62 melanoma
OVCAR-8 ovarian = test system: OVCAR-8 ovarian
TK-10 renal = test system: TK-10 renal
SN12C renal = test system: SN12C renal
HT29 colon = test system: HT29 colon

SMILES: CC[C@@H]1c2c(C#N)ncn2-c2cnc(Nc3ccc(C(=O)NC4CCN(C5CCN(CC6CC6)CC5)CC4)cc3OC)nc2N1C1CCCC1
- GI50 (HOP-62 NSCLC): 28.6 nM
- TGI (HOP-62 NSCLC): 76.6 nM
- GI50 (T-47D breast): 117 nM
- TGI (T-47D breast): 241 nM
- GI50 (MDA-MB-435 melanoma): 15.7 nM
- TGI (MDA-MB-435 melanoma): 38.6 nM
- GI50 ([…]-0 renal): 116 nM
- TGI (786-0 renal): 241 nM
- GI50 (UACC-257 melanoma): 78.5 nM
- TGI (UACC-257 melanoma): 201 nM
- GI50 (MCF7 breast): 34.5 nM
- TGI (MCF7 breast): 169 nM
- GI50 (HCT-116 colon): 21.4 nM
- TGI (HCT-116 colon): 107 nM
- GI50 (U251 glioblastoma): 23.3 nM
- TGI (U251 glioblastoma): 152 nM
- GI50 (NCI-H460 NSCLC): 16.4 nM
- TGI (NCI-H460 NSCLC): 35.1 nM
- GI50 (OVCAR-4 ovarian): 125 nM
- TGI (OVCAR-4 ovarian): 273 nM
- GI50 (KM12 colon): 23.9 nM
- TGI (KM12 colon): 74.9 nM
- GI50 (SK-MEL-28 melanoma): 60.1 nM
- TGI (SK-MEL-28 melanoma): 182 nM
- GI50 (COLO 205 colon): 19.8 nM
- TGI (COLO 205 colon): 110 nM
- GI50 (NCI-H226 lung): 175 nM
- TGI (NCI-H226 lung): 1310 nM
- TGI (SW-620 colon): 44.8 nM
- GI50 (SF-539 CNS): 36.5 nM
- TGI (SF-539 CNS): 106 nM
- GI50 (IGROV1 ovarian): 44.9 nM
- TGI (IGROV1 ovarian): 1660 nM
- GI50 (SK-MEL-2 melanoma): 13.8 nM
- TGI (SK-MEL-2 melanoma): 33.9 nM
- GI50 (BT-549 breast): 54.2 nM
- TGI (BT-549 breast): 228 nM
- GI50 (NCI/ADR-RES ovarian): 1110 nM
- TGI (NCI/ADR-RES ovarian): 2310 nM
- GI50 (K-562 leukemia): 21.1 nM
- TGI (K-562 leukemia): 43.8 nM
- GI50 (MDA-MB-231 breast): 44.5 nM
- TGI (MDA-MB-231 breast): 158 nM
- GI50 (MALME-3M melanoma): 134 nM
- TGI (MALME-3M melanoma): 263 nM
- GI50 (ACHN renal): 204 nM
- TGI (ACHN renal): 767 nM
- GI50 (PC-3 prostate): 53.8 nM
- TGI (PC-3 prostate): 302 nM
- GI50 (LOX IMVI melanoma): 28.3 nM
- TGI (LOX IMVI melanoma): 59.6 nM
- GI50 (M14 melanoma): 30 nM
- TGI (M14 melanoma): 81.9 nM
- GI50 (OVCAR-5 ovarian): 53 nM
- TGI (OVCAR-5 ovarian): 204 nM
- GI50 (A498 renal): 123 nM
- TGI (A498 renal): 254 nM
- GI50 (SK-MEL-5 melanoma): 17.2 nM
- TGI (SK-MEL-5 melanoma): 65.6 nM
- GI50 (A549 NSCLC): 41.7 nM
- TGI (A549 NSCLC): 171 nM
- GI50 (RXF 393 renal): 19.7 nM
- TGI (RXF 393 renal): 43.3 nM
- GI50 (SK-OV-3 ovarian): 26.1 nM
- TGI (SK-OV-3 ovarian): 87.5 nM
- GI50 (UO-31 renal): 181 nM
- TGI (UO-31 renal): 322 nM
- GI50 (CAKI-1 renal): 137 nM
- TGI (CAKI-1 renal): 280 nM
- GI50 (HCT-15 colon): 137 nM
- TGI (HCT-15 colon): 269 nM
- GI50 (DU-145 prostate): 23.9 nM
- TGI (DU-145 prostate): 53.8 nM
- GI50 (SF-268 CNS): 25.1 nM
- TGI (SF-268 CNS): 197 nM
- GI50 (SF-295 CNS): 75.7 nM
- TGI (SF-295 CNS): 1480 nM
- GI50 (HOP-92 NSCLC): 43.3 nM
- TGI (HOP-92 NSCLC): 404 nM
- GI50 (RPMI-8226 leukemia): 13.9 nM
- TGI (RPMI-8226 leukemia): 31.5 nM
- GI50 (SNB-19 CNS): 38.7 nM
- TGI (SNB-19 CNS): 269 nM
- GI50 (NCI-H23 lung): 27.5 nM
- TGI (NCI-H23 lung): 61.4 nM
- GI50 (HCC-2998 colon): 20.9 nM
- TGI (HCC-2998 colon): 48.7 nM
- GI50 (OVCAR-3 ovarian): 15.7 nM
- TGI (OVCAR-3 ovarian): 48.4 nM
- GI50 (UACC-62 melanoma): 32.8 nM
- TGI (UACC-62 melanoma): 95.5 nM
- GI50 (OVCAR-8 ovarian): 21.7 nM
- TGI (OVCAR-8 ovarian): 41.8 nM
- GI50 (TK-10 renal): 317 nM
- TGI (TK-10 renal): 1740 nM
- GI50 (SN12C renal): 103 nM
- TGI (SN12C renal): 356 nM
- GI50 (HT29 colon): 22 nM
- TGI (HT29 colon): 48.8 nM
